Values of other authors, collected in US20100041622A1, “Compositions containing aminoalkanes and aminoalkane derivatives” (priority 2008, published 2010).

What was measured:
[1] = tested on: vasoconstrictor activity (blood pressure of pithed animal subject); settings: average epinephrine equivalent per 1 mg of sulfate derivative
[2] = hydrophilic-lipophilic balance value, known values
vasoconstrictor activity = settings: see U.S. Pat. No. 2,350,318

Row | Compound | Epinephrine equivalent (micrograms (μg)) of 1 mg of the sulfate salt of the aminoalkane [1] | other results
1 | CCCC(C)N (centres unmarked) [2-amino-pentane] | 0.395 µg | –
2 | C=C(C)CCC(C)N (centres unmarked) [2-amino-5-methylhexene-5] | 0.504 µg | –
3 | Nonoxynol-9 | – | HLB [2]: 12.9
4 | CCC(N)CCC(C)C (centres unmarked) [3-amino-6-methylheptane] | nil | –
5 | CC(C)CCCN [1-amino-4-methyl pentane] | 0.530 µg | –
6 | CCCCCC(O)C(C)N (centres unmarked) [2-amino-3-hydroxy-octane] | 0.122 µg | –
7 | CCCCCCCCN [1-amino-octane] | nil | –
8 | CCCC(C)C(C)N (centres unmarked) [2-amino-3-methylhexane] | 0.858 µg | –
9 | Sorbitan Palmitate | – | HLB [2]: 6.7
10 | CCCCCC(C)N (centres unmarked) [2-aminoheptane] | 3.100 µg | –
11 | CCCC(C)CCN (centres unmarked) [1-amino-3-methylhexane] | 0.108 µg | –
12 | CC(C)=CCCC(C)N (centres unmarked) [2-amino-6-methylheptene-5] | 0.391 µg | –
13 | CCCCCCCN [1-amino-heptane] | 0.276 µg | –
14 | CC(C)CC(C)N (centres unmarked) [2-amino-4-methylpentane] | 0.840 µg | –
15 | PEG-4 lauryl ether | – | HLB [2]: 9.7
16 | C=CCCC(C)N (centres unmarked) [2-amino-hexene-5] | 0.193 µg | –
17 | CCCCC(C)C(C)N (centres unmarked) [2-amino-3-methylheptane] | 0.530 µg | –
18 | PEG-100 Stearate | – | HLB [2]: 18.8
19 | CC(C)CC(C)CC(C)N (centres unmarked) [2-amino-4,6-dimethylheptane] | 0.193 µg | –
20 | CCCCCC(N)CC (centres unmarked) [3-amino-octane] | 0.142 µg | –
21 | CCCCC(N)CC (centres unmarked) [3-aminoheptane] | 0.149 µg | –
22 | CCCCCCCCCCCCCCCCCC(=O)OCC(O)CO (centres unmarked) [Glyceryl Stearate] | – | HLB [2]: 3.5
23 | Phosphatidylcholine | – | HLB [2]: 7.6

Row | Compound | Epinephrine equivalent (micrograms (μg)) of 1 mg of the sulfate salt of the aminoalkane [1] | other results
24 | CCCC(N)CCC [4-aminoheptane] | 0.048 µg | –
25 | CCC(C)CC(C)N (centres unmarked) [2-amino-4-methylhexane] | 3.520 µg | vasoconstrictor activity compared to ephedrine or amphetamine (vasoconstrictor activity): greater vasoconstrictor activity
26 | CC(C)CC(N)CC(C)C [4-amino-2,6-dimethylheptane] | nil | –
27 | CCCCC(C)N (centres unmarked) [2-aminohexane] | 0.901 µg | –
28 | CC(C)CCCC(C)N (centres unmarked) [2-amino-6-methylheptane] | 2.620 µg | –
29 | CCCCCN [1-amino-pentane] | 0.210 µg | –
30 | CC(C)CCN [1-amino-3-methyl butane] | 0.238 µg | –
31 | CCC(CC)CCC(C)N (centres unmarked) [2-amino-5-ethylheptane] | 0.358 µg | –
32 | CC(C)CC(C)CCN (centres unmarked) [1-amino-3,5-dimethylhexane] | 0.660 µg | –
33 | CC(C)CCC(C)C(C)N (centres unmarked) [2-amino-3,6-dimethylheptane] | 0.910 µg | –
34 | CCCC(C)CC(C)N (centres unmarked) [2-amino-4-methylheptane] | 0.786 µg | –
35 | CC(N)CC(C)CC(C)(C)C (centres unmarked) [2-amino-4,6,6-trimethylheptane] | nil | –
36 | CCCCCCN [1-amino-hexane] | 0.766 µg | –
37 | CCCCC(C)CCN (centres unmarked) [1-amino-3-methylheptane] | 1.230 µg | –
38 | CCCCCCC(C)N (centres unmarked) [2-amino-octane] | 0.510 µg | –
39 | CC(N)CC(C)(C)C (centres unmarked) [2-amino-4,4-dimethylpentane] | 0.083 µg | –
40 | CCC(C)CCN (centres unmarked) [1-amino-3-methyl pentane] | 0.193 µg | –
41 | CC(C)CCC(C)N (centres unmarked) [2-amino-5-methylhexane] | 1.560 µg | –
42 | CCCCC(C)CC(C)N (centres unmarked) [2-amino-4-methyloctane] | 0.475 µg | –
43 | CCC(C)CCC(C)N (centres unmarked) [2-amino-5-methylheptane] | 0.980 µg | –
44 | Sorbitan monostearate | – | HLB [2]: 4.7
45 | CC(C)C(C)CCN (centres unmarked) [1-amino-3,4-dimethylpentane] | 1.720 µg | –
46 | CCCCCCC(C)CC(C)N (centres unmarked) [2-amino-4-methyldecane] | 0.242 µg | –
